Reference: ChEMBL document CHEMBL1156829 (Proc Natl Acad Sci U S A, 2008)

Key:
Plasmodium falciparum [1] = test: NOVARTIS: Inhibition of Plasmodium falciparum 3D7 (drug-susceptible) proliferation in erythrocyte-based infection assay; assay type: functional, organism-based; conditions: Plasmodium falciparum, 3D7
Plasmodium falciparum [2] = test: NOVARTIS: Inhibition of Plasmodium falciparum W2 (drug-resistant) proliferation in erythrocyte-based infection assay; assay type: functional, organism-based; conditions: Plasmodium falciparum, W2; read-out: EC50
[3] = NOVARTIS: Cytotoxicity against human hepatocellular carcinoma cell line (Huh7); assay type: toxicity, cell-based, Huh-7; conditions: Huh7 cells (hepatocellular carcinoma cell line)

## CCN1CCN(c2cc(C)c3cc(NC(=O)/C=C/c4ccc(OC)cc4)ccc3n2)CC1
Plasmodium falciparum [1]
  EC50: 905 nM
Plasmodium falciparum [2]
  EC50: 762 nM
[3]
  CC50: > 10.4 µM

## CCN1CCN(c2cc(C)c3cc(NC(=O)/C=C/c4cccc(Cl)c4)ccc3n2)CC1
Plasmodium falciparum [1]
  EC50: 935 nM
Plasmodium falciparum [2]
  EC50: 1010 nM
[3]
  CC50: > 13.8 µM

## CC(C)C1c2[nH]c3ccccc3c2CCN1C(=O)CCl (stereo unspecified)
Plasmodium falciparum [1]
  EC50: 498 nM
Plasmodium falciparum [2]
  EC50: 377 nM
[3]
  CC50: > 10 µM

## O=C(C1CC1)N1CCN=C1SCc1ccc(C(F)(F)F)cc1
Plasmodium falciparum [1]
  EC50: 6080 nM
Plasmodium falciparum [2]
  EC50: > 3700 nM
[3]
  CC50: > 100 µM

## Cc1c2ccccc2c(C)c2ccccc12
Plasmodium falciparum [1]
  EC50: 803 nM
Plasmodium falciparum [2]
  EC50: 827 nM
[3]
  CC50: 21.6 µM

## N=c1c2c(n(Cc3cccc(Cl)c3)c3c1CCC3)CCCC2
Plasmodium falciparum [1]
  EC50: 992 nM
Plasmodium falciparum [2]
  EC50: 378 nM
[3]
  CC50: > 10 µM

## CCCCCCCCCCCCn1ccc(=N)cc1
Plasmodium falciparum [1]
  EC50: 321 nM
Plasmodium falciparum [2]
  EC50: 188 nM
[3]
  CC50: 4.99 µM

## Cc1cccc(C2c3[nH]c4ccccc4c3CCN2C(=O)CCCN2CCCCC2=O)n1 (stereo unspecified)
Plasmodium falciparum [1]
  EC50: > 12500 nM
Plasmodium falciparum [2]
  EC50: 3770 nM
[3]
  CC50: > 100 µM

## O=C1CC(c2ccccc2)Oc2ccc(F)cc21 (stereo unspecified)
Plasmodium falciparum [1]
  EC50: > 1250 nM
Plasmodium falciparum [2]
  EC50: > 734 nM
[3]
  CC50: > 10 µM

## CCn1c(SCC(=O)N(c2ccccc2)c2ccccc2)nc2sc3c(c2c1=O)CCN(C)C3
Plasmodium falciparum [1]
  EC50: > 5080 nM
Plasmodium falciparum [2]
  EC50: 7340 nM
[3]
  CC50: > 100 µM

## CC(C)N(CC(=O)Nc1cc(C(C)(C)C)nn1-c1ccc(Cl)c(Cl)c1)C(=O)c1ccc(C(C)(C)C)cc1
Plasmodium falciparum [1]
  EC50: 6030 nM
Plasmodium falciparum [2]
  EC50: 7330 nM
[3]
  CC50: > 100 µM

## CCC[n+]1ccc(/C=C/c2ccc(Br)cc2)cc1
Plasmodium falciparum [1]
  EC50: 645 nM
Plasmodium falciparum [2]
  EC50: 382 nM
[3]
  CC50: > 10 µM

## Fc1ccc(N2CCN(c3ncnc4c3cnn4-c3ccccc3)CC2)cc1
Plasmodium falciparum [1]
  EC50: > 12500 nM
Plasmodium falciparum [2]
  EC50: 3780 nM
[3]
  CC50: > 100 µM

## CC(=O)N(Cc1ccc2c(c1)OCO2)C1CC(=O)N(c2ccccc2)C1=O (stereo unspecified)
Plasmodium falciparum [1]
  EC50: > 1250 nM
Plasmodium falciparum [2]
  EC50: > 381 nM
[3]
  CC50: > 10 µM

## COc1ccc(OCCNC(=O)c2ccccc2Cl)cc1
Plasmodium falciparum [1]
  EC50: > 1250 nM
Plasmodium falciparum [2]
  EC50: > 380 nM
[3]
  CC50: > 10 µM

## CCOc1ccccc1CN1CCCC(C(=O)N2CCCCCC2)C1 (stereo unspecified)
Plasmodium falciparum [1]
  EC50: 4400 nM
Plasmodium falciparum [2]
  EC50: 1420 nM
[3]
  CC50: 37.4 µM

## CC(C)CNC(=O)c1cnc(NCCCn2ccnc2)nc1NCC1CCCCC1
Plasmodium falciparum [1]
  EC50: 278 nM
Plasmodium falciparum [2]
  EC50: 379 nM
[3]
  CC50: > 10 µM

## O=C(CSc1nc(NCc2ccccc2)c2ccccc2n1)NCc1ccco1
Plasmodium falciparum [1]
  EC50: 254 nM
Plasmodium falciparum [2]
  EC50: 378 nM
[3]
  CC50: > 10 µM

## C=CCN1CCN(C(c2ccccc2F)c2nnnn2Cc2ccco2)CC1 (stereo unspecified)
Plasmodium falciparum [1]
  EC50: > 12500 nM
Plasmodium falciparum [2]
  EC50: 2910 nM
[3]
  CC50: > 77 µM

## FC(F)(F)c1cccc(NC(=S)N2CCCC2c2ccncc2)c1 (stereo unspecified)
Plasmodium falciparum [1]
  EC50: 327 nM
Plasmodium falciparum [2]
  EC50: 370 nM
[3]
  CC50: > 10 µM

## O=C(NCc1ccccc1)c1cnc(NCCCn2ccnc2)nc1Nc1ccccc1
Plasmodium falciparum [1]
  EC50: 611 nM
Plasmodium falciparum [2]
  EC50: 369 nM
[3]
  CC50: > 10 µM

## CCN1CCN(c2cc(C)c3cc(NC(=O)C=Cc4ccccc4Cl)ccc3n2)CC1
Plasmodium falciparum [1]
  EC50: 546 nM
Plasmodium falciparum [2]
  EC50: 697 nM
[3]
  CC50: 18.4 µM

## CCOC(=O)c1cnc2ccc(OC)cc2c1NCc1cccs1
Plasmodium falciparum [1]
  EC50: 5900 nM
Plasmodium falciparum [2]
  EC50: 3720 nM
[3]
  CC50: > 100 µM

## c1ccc(-c2cc(N3CCOCC3)nc(-c3ccccn3)n2)nc1
Plasmodium falciparum [1]
  EC50: 907 nM
Plasmodium falciparum [2]
  EC50: 372 nM
[3]
  CC50: > 10 µM

## O=C1N(Cc2cc3ccccc3s2)CC2CN(Cc3ccccc3)CCN12 (stereo unspecified)
Plasmodium falciparum [1]
  EC50: 436 nM
Plasmodium falciparum [2]
  EC50: 372 nM
[3]
  CC50: > 10 µM

## O=C1C(=Nc2cccc(C(F)(F)F)c2)c2ccccc2N1CN1CCc2ccccc2C1
Plasmodium falciparum [1]
  EC50: 8380 nM
Plasmodium falciparum [2]
  EC50: 3710 nM
[3]
  CC50: > 100 µM

## CC1=CC(=C(C#N)c2nc3ccccc3s2)C=C(C)N1c1ccc2c(c1)OCO2
Plasmodium falciparum [1]
  EC50: 1040 nM
Plasmodium falciparum [2]
  EC50: 3710 nM
[3]
  CC50: > 100 µM

## CCOC(=O)c1cnc2ccc3c(c(C)c(C)n3C)c2c1O
Plasmodium falciparum [1]
  EC50: 370 nM
Plasmodium falciparum [2]
  EC50: 370 nM
[3]
  CC50: > 10 µM

## CCN(CC)CCCN(Cc1cc2cc(OC)c(OC)cc2[nH]c1=O)C(=S)Nc1cccc(Cl)c1
Plasmodium falciparum [1]
  EC50: 698 nM
Plasmodium falciparum [2]
  EC50: 707 nM
[3]
  CC50: 18.9 µM

## N#CC(C#N)C(C(Sc1ccc([N+](=O)[O-])cc1)=C(O)c1ccccc1)c1cccs1 (stereo unspecified)
Plasmodium falciparum [1]
  EC50: 1350 nM
Plasmodium falciparum [2]
  EC50: 661 nM
[3]
  CC50: 17.7 µM

## O=C(CN1CCCC1)Nc1ccc(-c2nc3cc(NC(=O)CN4CCCC4)ccc3o2)cc1
Plasmodium falciparum [1]
  EC50: 2460 nM
Plasmodium falciparum [2]
  EC50: 1360 nM
[3]
  CC50: 36.2 µM

## COc1cc2c(cc1OC)-c1cc3ccc4c(c3c[n+]1CC2)OCO4
Plasmodium falciparum [1]
  EC50: 103 nM
Plasmodium falciparum [2]
  EC50: 233 nM
[3]
  CC50: > 6.25 µM

## COC(=O)C1=C(C)NC(=Cc2cc(C)n(-c3cc(Cl)ccc3Cl)c2C)C1=O
Plasmodium falciparum [1]
  EC50: 711 nM
Plasmodium falciparum [2]
  EC50: 3680 nM
[3]
  CC50: > 100 µM

## CCN1/C(=C\C=C2/SC(=S)N(c3ccccc3)C2=O)C(C)(C)c2cc(-c3ccccc3)ccc21
Plasmodium falciparum [1]
  EC50: 128 nM
Plasmodium falciparum [2]
  EC50: 318 nM
[3]
  CC50: > 8.66 µM

## COc1ccc(NC(=O)CCCCCn2c(SCC(=O)c3ccccc3)nc3ccsc3c2=O)cc1
Plasmodium falciparum [1]
  EC50: 3120 nM
Plasmodium falciparum [2]
  EC50: 3760 nM
[3]
  CC50: > 100 µM

## Brc1ccc2ncnc(NCC3CCCO3)c2c1 (stereo unspecified)
Plasmodium falciparum [1]
  EC50: > 12500 nM
Plasmodium falciparum [2]
  EC50: 3750 nM
[3]
  CC50: > 100 µM

## c1cncc(-c2ncc(-c3cnccn3)c(-c3cccnc3)n2)c1
Plasmodium falciparum [1]
  EC50: > 1250 nM
Plasmodium falciparum [2]
  EC50: > 374 nM
[3]
  CC50: > 10 µM

## N=c1c2c(n(Cc3ccccc3)c3c1CCC3)CCCC2
Plasmodium falciparum [1]
  EC50: 426 nM
Plasmodium falciparum [2]
  EC50: 738 nM
[3]
  CC50: > 10 µM

## Nc1nc(Cl)nc2ccccc12
Plasmodium falciparum [1]
  EC50: 516 nM
Plasmodium falciparum [2]
  EC50: 737 nM
[3]
  CC50: > 10 µM

## Cc1ccccc1C(=O)N(CC(=O)Nc1cc(C(C)(C)C)nn1-c1ccccc1Cl)C(C)C
Plasmodium falciparum [1]
  EC50: 1090 nM
Plasmodium falciparum [2]
  EC50: 649 nM
[3]
  CC50: > 8.81 µM

## COC(=O)CSc1nnc2c(n1)[nH]c1c(OC)ccc(Cl)c12
Plasmodium falciparum [1]
  EC50: 642 nM
Plasmodium falciparum [2]
  EC50: 736 nM
[3]
  CC50: > 10 µM

## O=C(Nc1ccc(-c2nc3cc(NC(=O)C(c4ccccc4)c4ccccc4)ccc3[nH]2)cc1)C(c1ccccc1)c1ccccc1
Plasmodium falciparum [1]
  EC50: 4450 nM
Plasmodium falciparum [2]
  EC50: 3680 nM
[3]
  CC50: > 100 µM

## CCC(C)NC(=O)c1nn(-c2cccc(OC)c2)c(=O)c2ccccc12 (stereo unspecified)
Plasmodium falciparum [1]
  EC50: 1970 nM
Plasmodium falciparum [2]
  EC50: 3810 nM
[3]
  CC50: > 100 µM

## CC1CCC(C(C)C)C(OC(=O)Cn2c(-c3ccccc3)[n+](C)c3ccccc32)C1 (stereo unspecified)
Plasmodium falciparum [1]
  EC50: 376 nM
Plasmodium falciparum [2]
  EC50: 426 nM
[3]
  CC50: > 11.2 µM

## Cc1sc2nc3c4ccccc4c(NCCCN(C)C)nn3c(=O)c2c1C
Plasmodium falciparum [1]
  EC50: 6600 nM
Plasmodium falciparum [2]
  EC50: 2300 nM
[3]
  CC50: 60 µM

## COc1cccc(Nc2nc(NCC3CCCO3)c3ccccc3n2)c1 (stereo unspecified)
Plasmodium falciparum [1]
  EC50: 230 nM
Plasmodium falciparum [2]
  EC50: 286 nM
[3]
  CC50: 7.67 µM

## CCOC(=O)c1[nH]c(CSC#N)c(C(C)=O)c1C
Plasmodium falciparum [1]
  EC50: > 1250 nM
Plasmodium falciparum [2]
  EC50: > 378 nM
[3]
  CC50: > 10 µM

## C=C[C@H]1CN2CC[C@H]1C[C@@H]2[C@@H](OC(=O)CC)c1ccnc2ccccc12
Plasmodium falciparum [1]
  EC50: 220 nM
Plasmodium falciparum [2]
  EC50: 370 nM
[3]
  CC50: > 10 µM

## O=C1C2C3c4ccccc4C(c4ccccc43)C2C(=O)N1CCO (stereo unspecified)
Plasmodium falciparum [1]
  EC50: > 12500 nM
Plasmodium falciparum [2]
  EC50: 3700 nM
[3]
  CC50: > 100 µM

## c1ccc(C[C@H]2CN(c3ccccc3)CCN2CCNCCOc2ccccc2)cc1
Plasmodium falciparum [1]
  EC50: 261 nM
Plasmodium falciparum [2]
  EC50: 200 nM
[3]
  CC50: > 5.32 µM

## Cn1cc(S(=O)(=O)c2cccc(Cl)c2)c(=O)c2cc(F)c(N3CCCCC3)cc21
Plasmodium falciparum [1]
  EC50: 1030 nM
Plasmodium falciparum [2]
  EC50: > 372 nM
[3]
  CC50: > 10 µM

## CC1=C(CC(=O)c2cccs2)C(=O)c2ccccc2C1=O
Plasmodium falciparum [1]
  EC50: 1240 nM
Plasmodium falciparum [2]
  EC50: 290 nM
[3]
  CC50: 7.75 µM
